Assay results published in patent US8951752B2, “N-demethyase genes and uses thereof” (priority 2011, dated 2015).

Target: T1, N-demethylase (Ndm: NdmA and NdmB subunits) (Pseudomonas putida, UniProt H9N289+H9N290)
T1 construct: lane 3, natural Ndm purified from P. putida CBB5; made in house; host or cells: purified from the natural strain Pseudomonas putida CBB5 (DEAE, Phenyl and Q Sepharose); not recombinant
T1 sequence (H9N289 1-351): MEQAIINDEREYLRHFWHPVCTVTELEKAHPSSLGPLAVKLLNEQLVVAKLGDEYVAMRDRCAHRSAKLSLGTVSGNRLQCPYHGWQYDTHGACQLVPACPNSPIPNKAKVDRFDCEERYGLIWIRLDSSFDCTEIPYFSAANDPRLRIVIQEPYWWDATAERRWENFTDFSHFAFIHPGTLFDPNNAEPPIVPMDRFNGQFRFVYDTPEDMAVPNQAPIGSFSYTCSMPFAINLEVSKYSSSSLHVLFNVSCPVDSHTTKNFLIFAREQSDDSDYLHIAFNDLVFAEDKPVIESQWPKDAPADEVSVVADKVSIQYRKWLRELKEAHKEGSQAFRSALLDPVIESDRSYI
T1 sequence (H9N290 1-355): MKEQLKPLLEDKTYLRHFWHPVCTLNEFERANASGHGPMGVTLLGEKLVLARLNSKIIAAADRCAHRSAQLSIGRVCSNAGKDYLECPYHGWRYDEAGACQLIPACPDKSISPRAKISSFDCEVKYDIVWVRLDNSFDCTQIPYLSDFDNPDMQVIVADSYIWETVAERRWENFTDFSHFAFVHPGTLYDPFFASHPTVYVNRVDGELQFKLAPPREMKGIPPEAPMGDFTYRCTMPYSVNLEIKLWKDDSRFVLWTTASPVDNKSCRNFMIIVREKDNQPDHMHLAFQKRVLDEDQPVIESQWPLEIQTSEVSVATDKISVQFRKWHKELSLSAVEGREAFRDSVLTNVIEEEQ
Assay: Methylxanthine N-demethylase activity assay with purified Ndm plus partially purified Ccr
Assay type: biochemical, Pseudomonas putida CBB5
Settings: for Relative N-demethylase activity: relative to paraxanthine
Protocol: Methylxanthine N-demethylase activity assay contained, in 1-mL total volume, 0.5 mM methylxanthine, 1 mM NADH, 50 μM Fe(NH4)2(SO4)2, and an appropriate amount of Ndm (0.08-7.5 mg protein, depending on purity of the protein) in 50 mM KPi buffer. Approximately 4 U of partially purified Ccr was added to reaction mixture when assaying Ndm in Phenyl Sepharose and Q Sepharose eluant-fractions (Ccr was not added to the enzyme reaction mixture when assaying Ndm activity in DEAE Sepharose eluant-fractions because Ccr co-eluted with Ndm). The reaction mixture was incubated at 30° C. with 300 rpm shaking on an incubating microplate shaker (VWR). Periodically, a small aliquot was sampled from the reaction mixture and mixed with equal volume of acetonitrile for quantifying concentrations of methylxanthines and N-demethylated products by HPLC. One unit of N-demethylase activity was defined as the consumption of one μmole methylxanthine per minute. When Ndm was coupled with the reductase and ferredoxin components of naphthalene dioxygenase of Pseudomonas sp. strain 9816 (Haigler & Gibson, 1990a; Haigler & Gibson, 1990b), 30 and 100 μg of the respective proteins were used. Spinach ferredoxin reductase and ferredoxin were also substituted for Ccr as described by Subramanian et al. (1979).
Determination of Kinetic Parameters. Apparent kinetic parameters of Ndm were determined by measuring the initial rate of disappearance (vo) of paraxanthine or 7-methylxanthine in 50 mM KPi buffer (pH 7.5) at 30° C. The paraxanthine and 7-methylxanthine concentrations ([S]) used in these experiments were from 20 to 500 μM. Substrates were incubated with Ndm and Ccr under standard conditions for 15 minutes. At 1, 5, 10, and 15 minutes, samples were removed from the reaction mixtures to quantitate substrate concentrations by HPLC. Plots of substrate concentrations against time were used to determine the initial rates of disappearance of substrates which were linear over 15 minutes. The apparent kinetic parameters were determined from Michaelis-Menten plots of Vo against [S] fitted with the equation
Determination of Oxygen Requirement. Oxygen consumption by Ndm during N-demethylation of paraxanthine was determined in a closed reaction vessel equipped with a Clarke-type oxygen electrode (Digitial Modell 0, Rank Brothers Ltd., Cambridge, England). The electrode was calibrated by using glucose oxidase (Sigma) and glucose for consumption of oxygen. Ndm activity assay was performed at 30° C. in a total volume of 1 ml of air-saturated 50 mM KPi buffer (pH 7.5) with 100 μM paraxanthine, 200 μM NADH, 50 μM Fe(NH4)2(SO4)2, 0.2 mg purified Ndm, and 4 U partially purified Ccr. The reaction was initiated by adding Ndm and partially purified Ccr after equilibration of all other reaction components for 3.3 minutes. After 13 minutes, a 100-μL aliquot was withdrawn from the reaction, immediately mixed with equal volume of acetonitrile to stop the enzyme reaction, and analyzed for N-demethylation product by HPLC. Background oxygen consumption, possibly due to NADH oxidase enzyme activity in the partially purified Ccr, was quantitated in control reactions containing all reaction components except paraxanthine.
Formaldehyde Determination. […] Twenty μL Nash reagent was added to 50 μl Ndm reaction sample plus 50 μl acetonitrile. This mixture was incubated at 51° C. for 12 minutes.

Structure (SMILES): Cn1cnc2c1c(=O)[nH]c(=O)n2C [Theobromine, 3,7-dimethylxanthine]
- Products identified (same products at 500 and 200 μM substrate): 3- & 7-methylxanthine, and xanthine
- Relative N-demethylase activity (substrate conc. 200 μM): 80.2 ± 7.8
- Relative N-demethylase activity (substrate conc. 500 μM): 59.8 ± 1.9
